Test results from US20020064770A1, “Binding compounds and methods for identifying binding compounds” (priority 2000, published 2002).

How the values were obtained:
CCR5 [1] = target: T1, CCR5 (Homo sapiens, UniProt P51681); conditions: CCR5-expressing Chinese hamster ovary cells; cited from earlier work
CCR5 [2] = target: T1, CCR5; design: endogenous in cells; host or cells: monocytes; conditions: cited from earlier work
R5 HIV-1 = conditions: clinical isolates and a laboratory strain; peripheral blood mononuclear cells; cited from earlier work
T-cell line-tropic HIV-1 = conditions: cited from earlier work
CCR5 [3] = target: T1, CCR5; design: endogenous in cells; host or cells: monocytes; conditions: monocytes; cited from earlier work
M-tropic HIV-1 strains = conditions: cited from earlier work
CCR5 [4] = assay: Binding affinity of identified peptide ligands for CCR5 (displacement of [125I]-MIP-1β); design: species or system human
Source text: In order to determine those ligands that had the highest affinity to the target receptor, generally, over 200 peptide libraries were screened to determine each library's respective inhibition binding. […] In additional aspects of the invention, once preferred amino acid residues are identified due to high preference values by CCR5 at the degenerate positions of the library, specific peptides are synthesized by the same methods as employed for library synthesis. In one embodiment of the invention, a high preference value is greater than 1. The value is determined by subtracting the control value from the sample value and dividing by the reference value. In a preferred embodiment of the invention, the preference value is greater than 1.2. In a highly preferred embodiment of the invention, the preference value is greater than 2. After synthesis of the identified peptide sequence, the peptide is purified by, for example, High Performance Liquid Chromatography (“HPLC”) and compositions are confirmed by Matrix-Assisted Laser Desorption Ionization-Time of Flight Mass Spectrometer (“MALDI-TOF MS”) and Edman Sequencing. Generally, relative affinities may be measured by modifying the radiolabel binding assay used in receptor purification.
Relative affinities were measured by modifying the radiolabel binding assay used in receptor purification.

PDZ = conditions: binding domain PDZ; cited from earlier work
SH2 (src) = target: T2, SH2 (src) (Homo sapiens, UniProt P12931); conditions: binding domain SH2 (src); cited from earlier work
T2 construct: SH2 (src)

14-3-3 = conditions: binding domain 14-3-3; cited from earlier work
CCR5 [5] = conditions: value obtained by Receptor Biology; applicant's membrane preparations comparable; read-out: Kd for MIP1-β binding; cited from earlier work

T1 sequence (P51681 whole entry): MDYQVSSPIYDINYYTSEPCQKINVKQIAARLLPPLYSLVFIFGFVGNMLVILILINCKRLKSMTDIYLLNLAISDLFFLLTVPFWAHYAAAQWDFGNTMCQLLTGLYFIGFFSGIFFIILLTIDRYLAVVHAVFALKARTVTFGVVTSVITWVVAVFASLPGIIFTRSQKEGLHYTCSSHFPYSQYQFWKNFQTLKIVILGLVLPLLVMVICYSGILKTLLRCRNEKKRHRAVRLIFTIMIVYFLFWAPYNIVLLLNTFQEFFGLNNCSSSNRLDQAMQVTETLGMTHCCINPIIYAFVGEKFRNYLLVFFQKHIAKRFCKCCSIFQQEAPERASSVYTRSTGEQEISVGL

Molecule: Cc1ccc(-c2ccc3c(c2)C=C(C(=O)Nc2ccc(C[N+](C)(C)C4CCOCC4)cc2)CCC3)cc1.[Cl-] [TAK-779]
- antagonism of RANTES binding to CCR5 (CCR5 [1]): antagonizes
- concentration blocking CCR5-mediated Ca2+ signaling (CCR5 [2]): nanomolar
- concentration inhibiting replication of R5 HIV-1 (R5 HIV-1): 1.6 to 3.7 nM
- activity against T-cell line-tropic HIV-1 (T-cell line-tropic HIV-1): inactive

Molecule: Aminooxypentane (AOP)-RANTES[2-68]
- antagonist potency on CCR5 function (CCR5 [3]): subnanomolar
- inhibition of infection of macrophages (M-tropic HIV-1 strains): potently inhibits

Molecule: K-K-K-A-R-S-L-I-W-R-P-A-K-A-K-K-K (KKKARSLIWRPAKAKKK)
- affinity and action on CCR5 (CCR5 [4]): enhanced affinity and action

Molecule: KKKKETDV
- Kd (PDZ): 42 nM

Molecule: M-A-R-S-L-I-W-R-P-A-K-A-K-K-A (MARSLIWRPAKAKKA)
- affinity and action on CCR5 (CCR5 [4]): enhanced affinity and action

Molecule: PYBEIY
- Kd (SH2 (src)): 100 nM

Molecule: RLSHpSLP
- Kd (14-3-3): 55.7 nM

Molecule: cyclo(M-Y-A-T-R-W-K-N) (MYATRWKN; cyclic)
- affinity and action on CCR5 (CCR5 [4]): enhanced affinity and action

B1: MIP-1β: natural CCR5 ligand, used as [125I] radioligand (protein, UniProt P13236 24-92, looked up)
C-C motif chemokine 4: APMGSDPPTACCFSYTARKLPRNFVVDYYETSSLCSQPAVVFQTKRSKQVCADPSESWVQEYVYDLELN
modifications: ends and bridges not checked; also: [125I] radiolabel
- Kd (CCR5 [5]): < 1 nM
